Test results published in patent publication US20110123670A1, “COMESTIBLE PRODUCTS” (priority 2007, published 2011).
One block for each molecule: values may come before it.

Columns and labels:
[1] = tested on: panel of 10-12 trained assessors; test: Quantitative Descriptive Analysis of cooling effect (temperature decrease in the nose and mouth); assay type: in vivo; conditions: mean of at least 10 repetitions; for Increase Angle (°) / Area under Curve / Intensity at Maximum: cooling effect; for Area under Curve / Intensity at Maximum: relative values; for Time to maximum cooling effect: table of cooling effect parameters
Source text: (§1) Quantitative Descriptive Analysis was used to determine the salivation effect of the invention. Seven samples of confectionary were tasted by a panel of 10-12 trained assessors using the technique of Time-Intensity measurement. The samples differed only in the sweetener component of the product.
(§2) This technique involves the testing of the confectionary sample in a sensory booth. The booth contained a computer equipped with software which allowed the panellist to record the perceived level of the mouth-watering sensation with time. Each assessor measured the perceived intensity of salivating mouthfeel at 1 second intervals over a time period of 90 seconds for each sample. This was achieved by initiating a timer within the software as the sample was placed in the mouth. Over the subsequent 90 second period the position of a marker on a linear slide scale was adjusted according to the perceived level of salivation. The data thus obtained was then processed to produce an analysis curve (intensity of effect versus time). The assessment was repeated multiple times (multiple assessors were used and at least three repetitions per assessor) and the result derived from the mean of the values obtained. The parameters determined were as follows: • Time to maximum salivatory effect, the time taken in seconds for the sample to reach its maximum intensity, a short time being indicative of the desired rapid inception of mouth-watering; • Intensity of salivation at maximum, the highest point in the curve as recorded by each assessor, a high intensity being generally preferred; • Area under the analysis curve, the larger this area the greater the total salivation over the 90 second test period; and • Increase angle, the angle in degrees of ascent from the first recorded value to the maximum intensity, a greater increase angle on the curve illustrates which samples have the greatest increase in salivation per unit time.
In addition, the Quantitative Descriptive Analysis as described above with regard to the evaluation of salivation was applied to determine the time to maximum cooling effect, the intensity of cooling at maximum, the area under the analysis curve and the increase angle. Cooling was assessed in terms of the temperature decrease in the nose and mouth, at the time of drawing air into the mouth. As with the determination of salivation using this technique, for effective cooling, a larger value is desirable for all parameters except the time to maximum cooling.

[2] = Determination of cooling effect: drop in temperature on dissolving sweetener powder in distilled water at 37° C.; assay type: physicochemical; conditions: cooling effect of sweeteners, tested in duplicate, mean
Method: 150 g of sweetener powder was dissolved in 50 ml of distilled water at 37° C. with stirring. The drop in temperature was measured after 20 seconds than a further 50 ml of distilled water added and the temperature measured after a further 20 seconds. This step was repeated […] to a total volume of water of 200 ml. All samples were tested in duplicate and the result derived from the mean of the values obtained. The repeated addition of water was intended to mimic the conditions in the mouth, where more saliva would be produced as chewing of the comestible progresses. As a result, the cooling effect is indicative of the cooling effect that would be observed in the mouth upon dissolution of the sweetener during consumption.

[3] = tested on: panel of 10-12 trained assessors; test: Determination of salivation effect: Quantitative Descriptive Analysis, Time-Intensity measurement of salivating mouthfeel; assay type: in vivo; conditions: for Increase Angle (°) / Time to Maximum Salivatory Effect / Area under Curve / Intensity at Maximum: salivating effect, chewy confectionary with 46.0 wt % test sweetener, 90 second test period, mean of at least 13 repetitions; for Area under Curve / Intensity at Maximum: relative values
Source text: as §1, §2
A series of tests were carried out to determine the mouth-watering effect and cooling effect derived from each of a range of sweeteners. The sweeteners tested were sugar (sucrose), erythritol, isomaltulose, trehalose, galactose, dextrose monohydrate and xylitol. Conventional methods were used to prepare this candy chew.

[4] = Studies by the applicant on galactose in sports drinks; assay type: in vivo; conditions: compared with glucose

Compound: O.O=C[C@H](O)[C@@H](O)[C@H](O)[C@H](O)CO [Dextrose Monohydrate, dextrose monohydrate]
Increase Angle (°) [1]: 36.5 ° | Area under Curve [1]: 663 | Intensity at Maximum [1]: 24 | Time to maximum cooling effect [1]: 81.9 s | Magnitude of reduction in temperature at T = 90 seconds (° C.) [2]: 14.5 °C | Increase Angle (°) [3]: 38 ° | Time to Maximum Salivatory Effect [3]: 76.7 s | Area under Curve [3]: 2306 | Intensity at Maximum [3]: 52.1

Compound: OC[C@@H](O)[C@@H](O)CO [Erythritol, erythritol]
Increase Angle (°) [1]: 81.5 ° | Area under Curve [1]: 3431 | Intensity at Maximum [1]: 59.9 | Time to maximum cooling effect [1]: 63.5 s | Increase Angle (°) [3]: 51.8 ° | Time to Maximum Salivatory Effect [3]: 64.8 s | Area under Curve [3]: 4079 | Intensity at Maximum [3]: 73

Compound: OC[C@H]1O[C@H](OC[C@H]2OC(O)(CO)[C@@H](O)[C@@H]2O)[C@H](O)[C@@H](O)[C@@H]1O (some centres unmarked) [Isomaltulose, isomaltulose]
Increase Angle (°) [3]: 31.1 ° | Time to Maximum Salivatory Effect [3]: 65.7 s | Area under Curve [3]: 1898 | Intensity at Maximum [3]: 34.3

Compound: OC[C@@H](O)[C@@H](O[C@H]1O[C@H](CO)[C@@H](O)[C@H](O)[C@H]1O)[C@H](O)[C@@H](O)CO [Maltitol]
Magnitude of reduction in temperature at T = 90 seconds (° C.) [2]: 16.5 °C

Compound: OC[C@H]1O[C@@](CO)(O[C@H]2O[C@H](CO)[C@@H](O)[C@H](O)[C@H]2O)[C@@H](O)[C@@H]1O [Sugar, sucrose]
Magnitude of reduction in temperature at T = 90 seconds (° C.) [2]: 13.5 °C | Increase Angle (°) [3]: 35.1 ° | Time to Maximum Salivatory Effect [3]: 58.9 s | Area under Curve [3]: 1673 | Intensity at Maximum [3]: 28.6

Compound: OC[C@H]1O[C@H](O[C@H]2O[C@H](CO)[C@@H](O)[C@H](O)[C@H]2O)[C@H](O)[C@@H](O)[C@@H]1O [Trehalose, trehalose]
Increase Angle (°) [3]: 35.3 ° | Time to Maximum Salivatory Effect [3]: 66.5 s | Area under Curve [3]: 2253 | Intensity at Maximum [3]: 43

Second part, led by results:

Magnitude of reduction in temperature at T = 90 seconds (° C.) [2]: 11.0 °C
Compound: O=C[C@H](O)[C@@H](O)[C@@H](O)[C@H](O)CO [Galactose, galactose]
Increase Angle (°) [1]: 39.3 ° | Area under Curve [1]: 725 | Intensity at Maximum [1]: 14.6 | Time to maximum cooling effect [1]: 57.1 s | incidence of hypoglycaemia [4]: lower | overall sporting performance [4]: increased | mouth-watering effect relative to that observed through the use of sugar ([3]; at the 90 second interval, FIG. 1): approximately 2.5 times | Increase Angle (°) [3]: 51.5 ° | Time to Maximum Salivatory Effect [3]: 62 s | Area under Curve [3]: 3561 | Intensity at Maximum [3]: 64.9

Magnitude of reduction in temperature at T = 90 seconds (° C.) [2]: 13.0 °C
Compound: OC[C@@H](O)[C@@H](O)[C@H](O)[C@H](O)CO [Mannitol]

Magnitude of reduction in temperature at T = 90 seconds (° C.) [2]: 26.0 °C
Compound: OC[C@@H](O)[C@H](O)[C@@H](O)CO [Xylitol, xylitol]
Increase Angle (°) [1]: 46 ° | Area under Curve [1]: 2457 | Intensity at Maximum [1]: 44.7 | Time to maximum cooling effect [1]: 64.5 s | Increase Angle (°) [3]: 39.3 ° | Time to Maximum Salivatory Effect [3]: 70.3 s | Area under Curve [3]: 2874 | Intensity at Maximum [3]: 53.1
